The assay has as its system neurons and astrocytes. The assay is described as follows: LC-MS/MS identification of succinated proteins, neurons and astrocytes overall. The class given is cell-based. Particulars: both neurons and astrocytes. The procedure: For the identification of succination sites, 60 μg of protein from primary neurons, 200 μg of protein from primary astrocytes or 120 μg of protein from differentiated N1E-115 neurons were resolved by SDS-PAGE, and the gels were stained with Coomassie Brilliant Blue. After de-staining, all protein bands were excised from the gels and subjected to in-gel digestion with trypsin. Briefly, proteins were reduced with 10 mM dithiothreitol and alkylated with 170 mM 4-vinylpyridine. Trypsin digestion was carried out overnight at 37° C. in the presence of 1.5 ng sequence grade modified trypsin (Promega®, Madison, WI) in 50 mM ammonium bicarbonate. After gel extraction, the peptides were re-suspended in 1% acetic acid and analyzed on a DionexTM […] system (Thermo ScientificTM, Rockford, IL) coupled to an Orbitrap Velos ProTM mass spectrometer (Thermo ScientificTM, Rockford, IL). The LC solvents were 2% acetonitrile/0.1% formic acid (Solvent A) and 80% acetonitrile/0.1% formic acid (Solvent B). […] The data-dependent acquisition (DDA) data were analyzed using Proteome DiscovererTM 1.4 software with SEQUEST search engine against the uniprot_ref_mouse database (2014-10-03 version, 52,474 proteins) or uniprot_ref_rat database (2011-5-11 version, 39765 proteins) with Xcorr>1 validation (+2) and an allowance for 2 missed cleavages. […]

Structures can show the parent of a compound that is named as a salt.

From patent US20260133203A1, “DETECTION OF FUMARATE-DERIVED MODIFICATION IN A TEST SAMPLE” (UNIVERSITY OF SOUTH CAROLINA, priority 2017, published 2026) come the findings set out here.

As for `COC(=O)/C=C/C(=O)OC` [DMF, dimethyl fumarate], the “number of distinct protein subunits directly modified by either DMF or MMF” value was 24.
